Read-outs that look alike come from different tables or passages of the source.
Assays:
human CB2 receptors = biological target: T1, human CB2 receptors (Homo sapiens, UniProt P34972); assay: functional cAMP assay, CHO cells expressing human CB2; type: cell-based
T1 construct: expressed in transfected cells; host or cells: CHO cells
Method: (§1) CHO cells expressing human CB1 or CB2 receptors are seeded 17-24 hours prior to the experiment 50.000 cells per well in a black 96 well plate with flat clear bottom (Corning Costar #3904) in DMEM (Invitrogen No. 31331), 1×HT supplement, with 10% fetal calf serum and incubated at 5% CO2 and 37° C. in a humidified incubator. The growth medium was exchanged with Krebs Ringer Bicarbonate buffer with 1 mM IBMX and incubated at 30° C. for 30 min. Compounds were added to a final assay volume of 100 μl and incubated for 30 min at 30° C. Using the cAMP-Nano-TRF detection kit the assay (Roche Diagnostics) was stopped by the addition of 50 μl lysis reagent (Tris, NaCl, 1.5% Triton X100, 2.5% NP40, 10% NaN3) and 50 μl detection solutions (20 μM mAb Alexa700-cAMP 1:1, and 48 μM Ruthenium-2-AHA-cAMP) and shaken for 2 h at room temperature. The time-resolved energy transfer is measured by a TRF reader (Evotec Technologies GmbH), equipped with a ND:YAG laser as excitation source. The plate is measured twice with the excitation at 355 nm and at the emission with a delay of 100 ns and a gate of 100 ns, total exposure time 10 s at 730 (bandwidth 30 nm) or 645 nm (bandwidth 75 nm), respectively. The FRET signal is calculated as follows: FRET=T730-Alexa730-P(T645-B645) with P=Ru730-B730/Ru645-B645, where T730 is the test well measured at 730 nM, T645 is the test well measured at 645 nm, B730 and B645 are the buffer controls at 730 nm and 645 nm, respectively. cAMP content is determined from the function of a standard curve spanning from 10 μM to 0.13 nM cAMP.
(§2) EC50 values were determined using Activity Base analysis (ID Business Solution, Limited). The EC50 values for a wide range of cannabinoid agonists generated from this assay were in agreement with the values published in the scientific literature.

human CB1 receptors = biological target: T2, human CB1 receptors (Homo sapiens, UniProt P21554); assay: functional cAMP assay, CHO cells expressing human CB1; type: cell-based
T2 construct: expressed in transfected cells; host or cells: CHO cells
T2 sequence (P21554 whole entry): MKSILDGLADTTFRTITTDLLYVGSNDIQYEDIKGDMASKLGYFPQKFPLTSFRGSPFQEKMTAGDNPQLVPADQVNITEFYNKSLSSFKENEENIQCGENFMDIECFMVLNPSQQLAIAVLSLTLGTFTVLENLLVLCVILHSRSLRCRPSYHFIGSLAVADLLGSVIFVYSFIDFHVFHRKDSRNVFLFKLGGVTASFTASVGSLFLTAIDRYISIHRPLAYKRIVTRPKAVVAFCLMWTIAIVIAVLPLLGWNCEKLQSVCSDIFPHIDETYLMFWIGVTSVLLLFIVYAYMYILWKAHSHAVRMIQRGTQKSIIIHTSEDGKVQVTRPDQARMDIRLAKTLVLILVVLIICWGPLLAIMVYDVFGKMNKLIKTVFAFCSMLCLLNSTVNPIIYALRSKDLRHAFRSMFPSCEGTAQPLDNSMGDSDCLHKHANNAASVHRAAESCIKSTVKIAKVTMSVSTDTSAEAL
Method: as §1, §2

[1] = functional cAMP assay, CHO cells expressing human CB2, read-out: Human CB2 EC50

T1 sequence (P34972 whole entry): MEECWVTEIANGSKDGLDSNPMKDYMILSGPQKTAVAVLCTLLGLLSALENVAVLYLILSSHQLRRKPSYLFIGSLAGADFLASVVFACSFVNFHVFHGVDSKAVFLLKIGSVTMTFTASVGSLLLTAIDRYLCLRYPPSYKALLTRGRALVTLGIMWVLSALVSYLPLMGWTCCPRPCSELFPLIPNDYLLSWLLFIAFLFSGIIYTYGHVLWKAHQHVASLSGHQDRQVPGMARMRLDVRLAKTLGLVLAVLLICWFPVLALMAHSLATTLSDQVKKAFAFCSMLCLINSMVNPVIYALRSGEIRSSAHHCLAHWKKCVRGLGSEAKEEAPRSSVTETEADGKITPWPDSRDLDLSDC

Question: With `CC(C)(C)c1nc(-c2ccc(C3CC3)c(OCC(F)(F)F)c2)no1` [Example 23, 5-tert-Butyl-3-[4-cyclopropyl-3-(2,2,2-trifluoroethoxy)phenyl]-1,2,4-oxadiazole] as the molecule, how does the EC50 (human CB2 receptors) read?
Answer: 25.9 nM

Question: And the EC50 (human CB1 receptors)?
Answer: > 10000 nM

Question: With `CNC(=O)[C@H](CC(C)C)NC(=O)c1ccc(C2CC2)c(OCC2CC2)c1` [Example 19, N^2-[4-cyclopropyl-3-(cyclopropylmethoxy)benzoyl]-N-methyl-L-leucinamide] as the molecule, how does the EC50 (human CB2 receptors) read?
Answer: 19.6 nM

Question: What about the EC50 (human CB1 receptors) of the same molecule?
Answer: > 10000 nM

Question: What does the source list for `C[C@@](CC(N)=O)(NC(=O)c1ccc(C2CC2)c(OCC(F)(F)F)c1)C1CC1` (single isomer, unassigned) [Example 35, (−)-N-[4-Amino-2-cyclopropyl-4-oxobutan-2-yl]-4-cyclopropyl-3-(2,2,2-trifluoroethoxy)benzamide]?
Answer: EC50 (human CB2 receptors): 8.56 nM; EC50 (human CB1 receptors): > 10000 nM

Question: With `Cc1nc([C@@](C)(CS(C)(=O)=O)NC(=O)c2ccc(C3CC3)c(OCC(F)(F)F)c2)no1` [Example 29, 4-Cyclopropyl-N-[(2S)-1-(methanesulfonyl)-2-(5-methyl-1,2,4-oxadiazol-3-yl)propan-2-yl]-3-(2,2,2-trifluoroethoxy)benzamide] as the molecule, how does the EC50 (human CB2 receptors) read?
Answer: 149 nM

Question: And the EC50 (human CB1 receptors)?
Answer: > 10000 nM

Question: `CNC(=O)[C@@H](NC(=O)c1ccc(C2CC2)c(-c2ccnn2C)c1)C(C)(C)C` [Example 56, 4-Cyclopropyl-N-[(2S)-3,3-dimethyl-1-(methylamino)-1-oxobutan-2-yl]-3-(1-methyl-1H-pyrazol-5-yl)benzamide] was tested. Which EC50 (human CB2 receptors; [1]) did it give?
Answer: 140 nM

Question: What about the EC50 (human CB1 receptors) of the same molecule?
Answer: > 10000 nM

Question: Which results are given for `Cc1ccc(C(=O)N[C@@H](CC(C)C)C(N)=O)cc1OCC1CC1` [Example 1, N-[(2S)-1-amino-4-methyl-1-oxopentan-2-yl]-3-(cyclopropylmethoxy)-4-methylbenzamide]?
Answer: EC50 (human CB2 receptors; [1]): 136 nM; EC50 (human CB1 receptors): > 10000 nM

Question: What does the source list for `NC(=O)[C@@H]1CC(F)(F)CN1C(=O)c1ccc(C2CC2)c(N2CCC(F)(F)C2)c1` [Example 65, 1-[4-Cyclopropyl-3-(3,3-difluoropyrrolidin-1-yl)benzoyl]-4,4-difluoro-L-prolinamide]?
Answer: EC50 (human CB2 receptors): 18.1 nM; EC50 (human CB1 receptors): > 10000 nM

Question: Which results are given for `Cc1nc([C@](C)(CC2CC2)NC(=O)c2ccc(C3CC3)c(-c3ccnn3C)c2)no1` [Example 59, 4-Cyclopropyl-N-[(2S)-1-cyclopropyl-2-(5-methyl-1,2,4-oxadiazol-3-yl)propan-2-yl]-3-(1-methyl-1H-pyrazol-5-yl)benzamide]?
Answer: EC50 (human CB2 receptors; [1]): 282 nM; EC50 (human CB1 receptors): > 10000 nM

Question: How did the EC50 (human CB2 receptors) turn out when `Cc1nc([C@](C)(CC2CC2)NC(=O)c2ccc(C3CC3)c(N3CCC(F)(F)C3)c2)no1` [Example 64, 4-Cyclopropyl-N-[(2S)-1-cyclopropyl-2-(5-methyl-1,2,4-oxadiazol-3-yl)propan-2-yl]-3-(3,3-difluoropyrrolidin-1-yl)benzamide] was run?
Answer: 1.08 nM

Question: And the EC50 (human CB1 receptors)?
Answer: > 10000 nM

Question: How did the EC50 (human CB2 receptors) turn out when `CNC(=O)[C@@H](NC(=O)c1ccc(C2CC2)c(OC(C)C)c1)C(C)(C)C` [Example 37, 4-Cyclopropyl-N-[(2S)-3,3-dimethyl-1-(methylamino)-1-oxobutan-2-yl]-3-[(propan-2-yl)oxy]benzamide] was run?
Answer: 5.33 nM

Question: What about the EC50 (human CB1 receptors) of the same molecule?
Answer: > 10000 nM

Question: Which EC50 (human CB2 receptors) does the source give for `C[C@](CC(N)=O)(NC(=O)c1ccc(C2CC2)c(N2CCC(F)(F)C2)c1)C1CC1` [Example 61, N-[(2R)-4-Amino-2-cyclopropyl-4-oxobutan-2-yl]-4-cyclopropyl-3-(3,3-difluoropyrrolidin-1-yl)benzamide] here?
Answer: 2.5 nM

Question: What about the EC50 (human CB1 receptors) of the same molecule?
Answer: 1790 nM

Question: What does the source list for `CC(C)C[C@H](NC(=O)c1ccc(C2CC2)c(OCC2CC2)c1)C(N)=O` [Example 4, N^2-[4-Cyclopropyl-3-(cyclopropylmethoxy)benzoyl]-L-leucinamide]?
Answer: EC50 (human CB2 receptors): 18 nM; EC50 (human CB1 receptors): > 10000 nM

Question: Which EC50 (human CB2 receptors) does the source give for `NC(=O)C1CC2(CC2)CN1C(=O)c1ccc(C2CC2)c(OCC2CC2)c1` (centres unmarked) [Example 22, 5-[4-Cyclopropyl-3-(cyclopropylmethoxy)benzoyl]-5-azaspiro[2.4]heptane-6-carboxamide] here?
Answer: 28.1 nM

Question: And the EC50 (human CB1 receptors)?
Answer: > 10000 nM

— patent US11339120B2, “Phenyl derivatives as cannabinoid receptor 2 agonists” (priority 2015, dated 2022)
